{
  "source": "patent US9987216B2",
  "about": "“Plant fat composition for cosmetic preparation” (priority 2016, dated 2018)",
  "key": {"[1]": {"settings": "Journal of the American College of Toxicology Vol. 6, No. 3, 1987; cited from earlier work"}, "[2]": {"assay": "DPPH radical scavenging (antioxidative effect)", "settings": "concentration of 10%; 30 minutes in the dark, absorbance 540 nm", "description": "DPPH (2,2-diphenyl-1-picryl-hydrazyl) is a purple-colored stable free radical substance that receives hydrogens from an antioxidant to undergo decolorization. Upon exposure to an antioxidant, the DPPH acts as a […] the antioxidant and becomes removed of free radicals, resulting in decolorization, which makes it possible to evaluate the radical-scavenging activity.\nVitamin E (acetate) was used as a control.\n(a) Prepare a 0.2 mM DPPH reagent dissolved in n-hexane.\n(b) Prepare test samples by concentration.\n(c) Add 100 μl of the reagent and 100 μl of each sample in four wells of a 96-well test plate.\n(d) Add 100 μl of the reagent and 100 μl of a solvent in four wells to remove the blank value.\n(e) Kept in the dark for 30 minutes at the room temperature.\n(f) Measure the absorbance at 540 nm with an ELISA reader (TECAN microplate reader).\nAnalysis Method (Calculation Method) DPPH radical scavenging ability (%)=[1−(absorbance of sample/absorbance of blank)]×100"}, "[3]": {"test_system": "skin on the inner side of the upper arm", "assay": "Skin irritation in the test subjects of the TEWL test", "type": "in vivo", "settings": "all test subjects (n=6), 100 μl on the skin", "description": "100 μl of each product was applied to the skin on the inner side of the upper arm and kept absorbed into the skin for 5 minutes. The transepidermal water loss was then measured at predetermined intervals. In addition, all the test subjects (n=6) had no irritation to both the plant fat composition of the present invention and the plant-derived squalane."}},
  "data": [
    {"smiles": "CCCCCCCCCCCC(=O)O", "note": "[lauric acid]", "values": [
      {"measurement": "safety in use for cosmetic formulations", "setting": "[1]", "value": "safe"}
    ]},
    {"smiles": "CCCCCCCC/C=C\\CCCCCCCC(=O)O", "note": "[oleic acid]", "values": [
      {"measurement": "safety in use for cosmetic formulations", "setting": "[1]", "value": "safe"}
    ]},
    {"smiles": "CCCCCCCCCCCCCCCCCC(=O)O", "note": "[stearic acid]", "values": [
      {"measurement": "safety in use for cosmetic formulations", "setting": "[1]", "value": "safe"}
    ]},
    {"smiles": "CC(=O)Oc1c(C)c(C)c2c(c1C)CCC(C)(CCC[C@H](C)CCC[C@H](C)CCCC(C)C)O2", "note": "(stereo partly shown) [vitamin E, Vitamin E (acetate)]", "values": [
      {"measurement": "DPPH radical scavenging activity", "setting": "[2]", "value": 5, "unit": "%"}
    ]},
    {"smiles": "CC(C)CCCC(C)CCCC(C)CCCCC(C)CCCC(C)CCCC(C)C", "note": "(stereo not shown) [plant-derived squalane, squalane]", "values": [
      {"measurement": "skin irritation", "setting": "[3]", "value": "no irritation"}
    ]},
    {"smiles": "CCCCCCCCCCCCCCCC(=O)O", "note": "[palmitic acid]", "values": [
      {"measurement": "safety in use for cosmetic formulations", "setting": "[1]", "value": "safe"}
    ]},
    {"smiles": "CCCCCCCCCCCCCC(=O)O", "note": "[myristic acid]", "values": [
      {"measurement": "safety in use for cosmetic formulations", "setting": "[1]", "value": "safe"}
    ]}
  ]
}
